Experimental data published in patent US20260209193A1, “NOVEL INHIBITORS OF DNA DAMAGE RESPONSES FOR CANCER THERAPY” (The Regents of the University of California, priority 2022, published 2026).

Assays:
Assay type in all cases: cell-based
PARP1 = target: T1, PARP1 (Homo sapiens, UniProt P09874); test: PARP1 trapping, chromatin fractionation (chromatin-bound fraction); settings: PC3 cells
T1 construct: endogenous in cells; host or cells: PC3
In short: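 PARP1 trapping was measured as PARP1 in the chromatin-bound fraction across six lines: SUM149PT-BRCA1mut/BRCA1rev (breast), UWB1.289 BRCA1-null and BRCA1-restored (ovarian), HR-deficient C4-2B/MR (Rad51 mutant) and HR-proficient PC3 (prostate).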

[1] = system: PC3 and SUM149PT-BRCA1mut cells; test: CCK8 cell killing screen of JC099 analogs
Source text: Structure optimization represents a critical step towards identifying candidate compounds for preclinical and clinical development and contributes to structure-function analysis. […] Cell killing potency was detected by a CCK8 assay in prostate and breast cancer cells. […]
The cell killing potency was detected by a CCK8 assay in prostate and breast cancer cells.

ATR = target: T2, ATR (Homo sapiens, UniProt Q13535); test: ATR-mediated signaling: phosphorylation of Rad17 Ser 645 and CHK1 Ser 345 in cells; settings: for ATR inhibition potency relative to JC099 (OLA- or UV-induced phosphorylation of Rad17 and CHK1): compared to JC099
T2 construct: endogenous in cells; host or cells: PC3, C4-2B/MR, SUM149PT-BRCA1rev, UWB1.289+BRCA1, MDA-MB-231
Experimental: PARP inhibitor-resistant cells are increasingly dependent on ATR for survival, and ATR inhibition disrupts restored HR and fork protection pathways in PARP inhibitor resistant BRCA-deficient cancer cells. For ATR kinase in vitro assays, ATR was immunoprecipitated with 3 μg of anti-ATR antibody (Bethyl Laboratories, A300-137A) from 1 mg of cell lysate. […] The IC50 was determined by the enzyme profiling service of Eurofins Cerep (France). […] The phosphorylation of CHK1 at Ser 345 sites was used as a bio-marker of ATR-mediated signaling pathway. The phosphorylation of Rad17 at Ser 645, which is a substrate of ATR, was also examined.
ATR inhibition was assessed in C4-2B/MR cells. Considering ATM is a homologous protein of ATR, we also detected the effect of JC046 analogs on the phosphorylation of KAP1 at Ser 824 and CHK2 at Thr 68 sites, which were used as markers of ATM signaling pathway.

T1 sequence (P09874 whole entry, species assumed): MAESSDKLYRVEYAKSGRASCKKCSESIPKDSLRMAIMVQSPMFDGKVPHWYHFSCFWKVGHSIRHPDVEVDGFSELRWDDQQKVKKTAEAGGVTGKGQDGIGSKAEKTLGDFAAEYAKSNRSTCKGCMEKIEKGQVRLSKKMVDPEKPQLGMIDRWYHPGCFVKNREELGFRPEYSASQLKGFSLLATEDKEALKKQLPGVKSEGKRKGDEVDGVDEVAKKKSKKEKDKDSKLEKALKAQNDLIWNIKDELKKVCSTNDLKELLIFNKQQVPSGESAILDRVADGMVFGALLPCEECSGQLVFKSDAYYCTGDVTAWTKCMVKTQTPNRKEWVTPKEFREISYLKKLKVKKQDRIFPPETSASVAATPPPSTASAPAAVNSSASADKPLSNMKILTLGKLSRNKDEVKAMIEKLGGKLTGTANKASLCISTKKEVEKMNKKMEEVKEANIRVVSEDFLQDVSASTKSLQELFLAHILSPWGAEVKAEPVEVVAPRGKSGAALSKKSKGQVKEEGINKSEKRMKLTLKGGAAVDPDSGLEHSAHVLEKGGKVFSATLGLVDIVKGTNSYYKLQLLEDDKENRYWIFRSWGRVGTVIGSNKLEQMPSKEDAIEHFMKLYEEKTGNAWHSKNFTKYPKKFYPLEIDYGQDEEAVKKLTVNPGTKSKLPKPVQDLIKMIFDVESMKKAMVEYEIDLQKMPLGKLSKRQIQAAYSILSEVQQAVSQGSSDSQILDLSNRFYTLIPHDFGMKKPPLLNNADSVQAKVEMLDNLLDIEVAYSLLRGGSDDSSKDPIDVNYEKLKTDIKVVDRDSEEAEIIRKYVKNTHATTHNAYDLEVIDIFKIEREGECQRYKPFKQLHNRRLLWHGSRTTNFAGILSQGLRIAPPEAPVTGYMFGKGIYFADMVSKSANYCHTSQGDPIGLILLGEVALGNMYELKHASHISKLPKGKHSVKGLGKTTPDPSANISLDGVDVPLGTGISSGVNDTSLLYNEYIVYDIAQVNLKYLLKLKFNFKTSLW
T2 sequence (Q13535 whole entry): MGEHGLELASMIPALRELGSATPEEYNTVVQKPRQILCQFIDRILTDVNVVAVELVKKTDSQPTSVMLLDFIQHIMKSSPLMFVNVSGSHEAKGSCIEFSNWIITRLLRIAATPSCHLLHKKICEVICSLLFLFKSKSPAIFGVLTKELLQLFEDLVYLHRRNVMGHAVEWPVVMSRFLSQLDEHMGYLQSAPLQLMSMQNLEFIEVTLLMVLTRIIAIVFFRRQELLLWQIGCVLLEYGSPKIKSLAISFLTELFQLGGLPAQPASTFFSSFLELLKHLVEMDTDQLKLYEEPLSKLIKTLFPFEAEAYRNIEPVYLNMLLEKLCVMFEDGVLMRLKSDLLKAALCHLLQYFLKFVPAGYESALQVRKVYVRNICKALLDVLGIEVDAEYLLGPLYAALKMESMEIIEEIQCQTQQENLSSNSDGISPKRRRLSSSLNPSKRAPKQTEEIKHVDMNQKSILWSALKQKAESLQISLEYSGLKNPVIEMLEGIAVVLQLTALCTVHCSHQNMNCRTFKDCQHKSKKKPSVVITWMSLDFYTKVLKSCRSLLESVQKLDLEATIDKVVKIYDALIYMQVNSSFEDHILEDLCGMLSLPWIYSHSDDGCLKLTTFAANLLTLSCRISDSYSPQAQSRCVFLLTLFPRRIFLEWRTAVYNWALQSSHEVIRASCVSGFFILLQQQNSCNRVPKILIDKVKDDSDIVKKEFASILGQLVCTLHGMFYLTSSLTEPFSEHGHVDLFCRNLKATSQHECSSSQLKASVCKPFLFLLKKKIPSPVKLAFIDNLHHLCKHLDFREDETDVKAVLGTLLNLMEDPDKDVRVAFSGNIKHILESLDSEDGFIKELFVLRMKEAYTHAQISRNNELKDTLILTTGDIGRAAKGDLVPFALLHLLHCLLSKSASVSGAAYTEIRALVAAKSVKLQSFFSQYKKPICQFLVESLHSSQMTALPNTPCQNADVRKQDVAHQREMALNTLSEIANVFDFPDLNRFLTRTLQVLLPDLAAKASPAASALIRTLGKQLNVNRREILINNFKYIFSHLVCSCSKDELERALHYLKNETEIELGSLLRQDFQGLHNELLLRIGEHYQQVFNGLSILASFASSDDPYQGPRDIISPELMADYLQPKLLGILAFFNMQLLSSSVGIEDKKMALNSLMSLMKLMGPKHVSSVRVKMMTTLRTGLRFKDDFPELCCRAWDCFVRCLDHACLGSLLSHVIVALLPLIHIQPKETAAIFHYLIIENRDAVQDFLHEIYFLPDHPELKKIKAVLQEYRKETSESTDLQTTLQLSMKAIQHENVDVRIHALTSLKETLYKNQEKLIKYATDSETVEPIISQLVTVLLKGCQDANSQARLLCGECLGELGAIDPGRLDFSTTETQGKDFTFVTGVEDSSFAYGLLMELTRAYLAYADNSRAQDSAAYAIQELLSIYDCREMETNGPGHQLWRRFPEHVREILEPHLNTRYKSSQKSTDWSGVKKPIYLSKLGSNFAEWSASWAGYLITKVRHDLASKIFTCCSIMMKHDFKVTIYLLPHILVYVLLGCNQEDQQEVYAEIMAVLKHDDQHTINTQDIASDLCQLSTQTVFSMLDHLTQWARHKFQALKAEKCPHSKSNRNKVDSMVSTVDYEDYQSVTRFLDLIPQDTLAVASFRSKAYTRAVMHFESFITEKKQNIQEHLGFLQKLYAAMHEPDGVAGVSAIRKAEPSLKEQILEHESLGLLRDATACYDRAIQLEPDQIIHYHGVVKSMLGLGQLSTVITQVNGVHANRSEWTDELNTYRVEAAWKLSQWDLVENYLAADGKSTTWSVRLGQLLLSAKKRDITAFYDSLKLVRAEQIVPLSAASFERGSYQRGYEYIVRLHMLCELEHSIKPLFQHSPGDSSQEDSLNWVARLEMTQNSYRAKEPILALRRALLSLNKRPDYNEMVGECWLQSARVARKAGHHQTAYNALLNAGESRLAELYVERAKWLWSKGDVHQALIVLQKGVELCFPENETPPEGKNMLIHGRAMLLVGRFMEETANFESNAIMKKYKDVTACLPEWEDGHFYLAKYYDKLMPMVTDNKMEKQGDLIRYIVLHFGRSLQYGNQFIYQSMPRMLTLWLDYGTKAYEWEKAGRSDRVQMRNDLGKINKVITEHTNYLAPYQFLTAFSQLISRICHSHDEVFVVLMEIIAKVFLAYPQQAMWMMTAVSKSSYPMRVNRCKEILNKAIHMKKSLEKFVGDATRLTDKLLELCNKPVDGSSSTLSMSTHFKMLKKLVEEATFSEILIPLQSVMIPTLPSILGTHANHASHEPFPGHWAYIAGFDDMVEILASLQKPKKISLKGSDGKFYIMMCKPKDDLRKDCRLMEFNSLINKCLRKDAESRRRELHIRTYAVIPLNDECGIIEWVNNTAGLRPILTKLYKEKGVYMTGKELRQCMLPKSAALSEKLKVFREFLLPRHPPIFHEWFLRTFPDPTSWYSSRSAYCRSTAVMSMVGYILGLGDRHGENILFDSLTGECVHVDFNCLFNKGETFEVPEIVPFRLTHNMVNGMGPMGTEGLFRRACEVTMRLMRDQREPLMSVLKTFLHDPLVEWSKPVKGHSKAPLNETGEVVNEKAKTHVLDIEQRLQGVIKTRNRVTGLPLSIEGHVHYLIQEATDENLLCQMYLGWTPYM
T2 sequence (Q8WXE1 whole entry partner): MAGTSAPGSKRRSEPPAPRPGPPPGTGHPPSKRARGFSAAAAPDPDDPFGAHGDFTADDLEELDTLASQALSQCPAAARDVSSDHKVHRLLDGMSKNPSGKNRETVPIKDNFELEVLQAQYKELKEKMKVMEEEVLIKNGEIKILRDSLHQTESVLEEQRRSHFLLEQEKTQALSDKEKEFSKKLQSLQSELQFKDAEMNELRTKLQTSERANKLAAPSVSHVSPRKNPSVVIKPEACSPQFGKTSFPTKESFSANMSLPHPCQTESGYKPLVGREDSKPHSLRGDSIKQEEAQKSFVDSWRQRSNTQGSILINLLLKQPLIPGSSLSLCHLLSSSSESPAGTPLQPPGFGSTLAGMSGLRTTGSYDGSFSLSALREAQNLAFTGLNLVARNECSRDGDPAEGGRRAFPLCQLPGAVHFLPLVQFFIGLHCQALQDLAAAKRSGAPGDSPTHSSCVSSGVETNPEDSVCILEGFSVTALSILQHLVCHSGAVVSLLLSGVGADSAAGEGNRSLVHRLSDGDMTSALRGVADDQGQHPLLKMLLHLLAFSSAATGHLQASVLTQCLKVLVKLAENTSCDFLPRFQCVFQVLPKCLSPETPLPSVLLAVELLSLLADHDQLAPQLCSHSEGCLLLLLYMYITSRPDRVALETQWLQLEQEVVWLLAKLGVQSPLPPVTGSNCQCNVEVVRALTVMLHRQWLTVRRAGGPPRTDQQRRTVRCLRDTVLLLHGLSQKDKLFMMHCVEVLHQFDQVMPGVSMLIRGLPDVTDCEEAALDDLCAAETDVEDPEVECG

Compound | PARP1 trapped on DNA lesions (PARP1; 0.3 μM) | PARP1-trapping potency relative to JC099 (PARP1 in the chromatin-bound fraction) (PARP1) | ATR inhibition potency relative to JC099 (OLA- or UV-induced phosphorylation of Rad17 and CHK1) (ATR) | cell killing potency relative to JC099 [1] | Olaparib induced phosphorylation of Rad17 at Ser 645 and CHK1 at Ser 345 (ATR; 1 μM and 2 μM, PC3 cells)
O=C(CN1CCCC1)Nc1ccc(C(=O)NC2C/C(=C\c3ccc(F)c(F)c3)C(=O)/C(=C/c3ccc(F)c(F)c3)C2)cc1 (centres unmarked) [JCS046, N-(3,5-bis((E)-3,4-difluorobenzylidene)-4-oxocyclohexyl)-4-(2-(pyrrolidin-1-yl)acetamido)benzamide] | trapped | – | – | higher cell killing potency than JC099 | –
CN1CCN(c2ccc(C(=O)NC3C/C(=C\c4ccc(F)c(F)c4)C(=O)/C(=C/c4ccc(F)c(F)c4)C3)cc2)CC1 (centres unmarked) [JCS071, N-(3,5-Bis((E)-3,4-difluorobenzylidene)-4-oxocyclohexyl)-4-(4-methylpiperazin-1-yl)benzamide] | – | – | – | higher cell killing potency than JC099 | –
O=C1/C(=C/c2ccc(F)c(F)c2)CC(NC(=O)c2ccc3c(ccn3CCN3CCCC3)c2)C/C1=C\c1ccc(F)c(F)c1 (centres unmarked) [JCS075, N-(3,5-bis((E)-3,4-difluorobenzylidene)-4-oxocyclohexyl)-1-(2-(pyrrolidin-1-yl)ethyl)-1H-indole-5-carboxamide] | – | increased the accumulation of PARP1 in the chromatin-bound fraction than JC099 | – | – | decreased the phosphorylation of Rad17 and CHK1
O=C1/C(=C/c2ccc(F)c(F)c2)CC(NC(=O)c2ccc(OCCN3CCC(N4CCCC4)CC3)cc2)C/C1=C\c1ccc(F)c(F)c1 (centres unmarked) [JCS080, N-(3,5-bis((E)-3,4-difluorobenzylidene)-4-oxocyclohexyl)-4-(2-(4-(pyrrolidin-1-yl)piperidin-1-yl)ethoxy)benzamide] | – | – | greater ATR inhibition potential | higher cell killing potency than JC099 | –
N#Cc1cc(NCCN2CCCC2)ccc1C(=O)NC1C/C(=C\c2ccc(F)c(F)c2)C(=O)/C(=C/c2ccc(F)c(F)c2)C1 (centres unmarked) [JCS091, N-(3,5-Bis((E)-3,4-difluorobenzylidene)-4-oxocyclohexyl)-2-cyano-4-((2-(pyrrolidin-1-yl)ethyl)ami-no)benzamide] | – | higher potency in PARP1-trapping | – | higher cell killing potency than JC099 | –
O=C1/C(=C/c2ccc(F)c(F)c2)CC(NC(=O)c2cnc(NCCN3CCCC3)cc2C(F)(F)F)C/C1=C\c1ccc(F)c(F)c1 (centres unmarked) [JCS094, N-(3,5-Bis((E)-3,4-difluorobenzylidene)-4-oxocyclohexyl)-6-((2-(pyrrolidin-1-yl)ethyl)amino)-4-(trifluoromethyl)nicotinamide] | – | higher potency in PARP1-trapping | their potencies were close to JC099 | – | –
CCN(CCOC)CCOc1ccc(C(=O)NC2C/C(=C\c3ccc(F)c(F)c3)C(=O)/C(=C/c3ccc(F)c(F)c3)C2)cc1 (centres unmarked) [JCS109, N-(3,5-Bis((E)-3,4-difluorobenzylidene)-4-oxocyclohexyl)-4-(2-(ethyl(2-methoxyethyl)amino)eth-oxy)benzamide] | – | higher potency in PARP1-trapping | greater ATR inhibition potential | – | –
CN1CCC[C@H]1CNc1ncc(C(=O)NC2C/C(=C\c3ccc(F)c(F)c3)C(=O)/C(=C/c3ccc(F)c(F)c3)C2)cn1 (stereo partly drawn) [JCS161, N-(3,5-Bis((E)-3,4-difluorobenzylidene)-4-oxocyclohexyl)-2-((((S)-1-methylpyrrolidin-2-yl)methyl)-amino)pyrimidine-5-carboxamide] | – | – | – | higher cell killing potency than JC099 | –
CCCN(CCC)CCOc1ccc(C(=O)NC2C/C(=C\c3ccc(F)c(F)c3)C(=O)/C(=C/c3ccc(F)c(F)c3)C2)cc1 (centres unmarked) [JCSO11] | – | – | – | higher cell killing potency than JC099 | –

Second part, led by results:

PARP1 trapped on DNA lesions (PARP1; 0.3 μM) | PARP1-trapping potency relative to JC099 (PARP1 in the chromatin-bound fraction) (PARP1) | ATR inhibition potency relative to JC099 (OLA- or UV-induced phosphorylation of Rad17 and CHK1) (ATR) | Compound | cell killing potency relative to JC099 [1] | Olaparib induced phosphorylation of Rad17 at Ser 645 and CHK1 at Ser 345 (ATR; 1 μM and 2 μM, PC3 cells)
– | – | greater ATR inhibition potential | COCCN(CCOc1ccc(C(=O)NC2C/C(=C\c3ccc(F)c(F)c3)C(=O)/C(=C/c3ccc(F)c(F)c3)C2)cc1)CC1CCCO1 (centres unmarked) [JCS110, N-(3,5-Bis((E)-3,4-difluorobenzylidene)-4-oxocyclohexyl)-4-(2-((2-methoxyethyl)((tetrahydrofuran-2-yl)methyl)amino)ethoxy)benzamide] | moderate potency of cell killing, whereas less than JC099 | –
– | – | their potencies were close to JC099 | CCN(CC)CCOc1ccc(C(=O)NC2C/C(=C\c3ccc(F)c(F)c3)C(=O)/C(=C/c3ccc(F)c(F)c3)C2)cc1OC (centres unmarked) [JCS111, N-(3,5-Bis((E)-3,4-difluorobenzylidene)-4-oxocyclohexyl)-4-(2-(diethylamino)ethoxy)-3-methoxy-benzamide] | moderate potency of cell killing, whereas less than JC099 | –
– | higher potency in PARP1-trapping | their potencies were close to JC099 | CCN(CC)CCOc1nncc2cc(C(=O)NC3C/C(=C\c4ccc(F)c(F)c4)C(=O)/C(=C/c4ccc(F)c(F)c4)C3)ccc12 (centres unmarked) [JCS133, N-(3,5-Bis((E)-3,4-difluorobenzylidene)-4-oxocyclohexyl)-1-(2-(diethylamino)ethoxy)phthalazine-6-carboxamide] | – | –
– | – | greater ATR inhibition potential | CCN1CCC[C@H]1CNc1ccc(C(=O)NC2C/C(=C\c3cc(F)c(F)c(F)c3)C(=O)/C(=C/c3cc(F)c(F)c(F)c3)C2)cc1 (stereo partly drawn) [JCS142, 4-((((S)-1-Ethylpyrrolidin-2-yl)methyl)amino)-N-(4-oxo-3,5-bis((E)-3,4,5-trifluorobenzylidene)-cyclohexyl)benzamide] | higher cell killing potency than JC099 | –
– | – | less ATR inhibition potencies | COCCN(CCOC)CCOc1ccc(C(=O)NC2C/C(=C\c3cc(F)c(F)c(F)c3)C(=O)/C(=C/c3cc(F)c(F)c(F)c3)C2)cc1 (centres unmarked) [JCS143, 4-(2-(Bis(2-methoxyethyl)amino)ethoxy)-N-(4-oxo-3,5-bis((E)-3,4,5-trifluorobenzylidene)cyclo-hexyl)benzamide] | moderate potency of cell killing, whereas less than JC099 | –
– | their potencies were less than JC099 | less ATR inhibition potencies | CCN(CC)CCOc1ccc(C(=O)NC2C/C(=C\c3ccc(F)cc3)C(=O)/C(=C/c3ccc(F)cc3)C2)cc1 (centres unmarked) [JCS149, N-(3,5-Bis((E)-4-fluorobenzylidene)-4-oxocyclohexyl)-4-(2-(diethylamino)ethoxy)benzamide] | – | –
– | their potencies were less than JC099 | their potencies were close to JC099 | O=C1/C(=C/c2ccc(F)c(F)c2)CC(NC(=O)c2ccc(OCCNN3CCCCC3)cc2)C/C1=C\c1ccc(F)c(F)c1 (centres unmarked) [JCS150, N-(3,5-Bis((E)-3,4-difluorobenzylidene)-4-oxocyclohexyl)-4-(2-(piperidin-1-ylamino)ethoxy)-benzamide] | – | –
– | their potencies were less than JC099 | their potencies were close to JC099 | O=C1/C(=C/c2ccc(F)c(F)c2)CC(NC(=O)c2ccc(OCCN3CC4(COC4)C3)cc2)C/C1=C\c1ccc(F)c(F)c1 (centres unmarked) [JCS151, 4-(2-(2-Oxa-6-azaspiro[3.3]heptan-6-yl)ethoxy)-N-(3,5-bis((E)-3,4-difluorobenzylidene)-4-oxocyclohexyl)benzamide] | – | –
– | higher potency in PARP1-trapping | less ATR inhibition potencies | CCN(CC)CCOc1ccc(C(=O)NC2C/C(=C\c3ccc(F)c(F)c3F)C(=O)/C(=C/c3ccc(F)c(F)c3F)C2)cc1 (centres unmarked) [JCS159, 4-(2-(Diethylamino)ethoxy)-N-(4-oxo-3,5-bis((E)-2,3,4-trifluorobenzylidene)cyclohexyl)benzamide] | – | –
– | their potencies were less than JC099 | greater ATR inhibition potential | CN1CCC[C@H]1CNc1ccc(C(=O)NC2C/C(=C\c3ccc(F)c(F)c3)C(=O)/C(=C/c3ccc(F)c(F)c3)C2)cc1 (stereo partly drawn) [JCS160, N-(3,5-Bis((E)-3,4-difluorobenzylidene)-4-oxocyclohexyl)-4-((((S)-1-methylpyrrolidin-2-yl)methyl)-amino)benzamide] | – | –
